{"source": "patent US20220412957A1", "about": "“METHODS OF TREATING CANCER PATIENTS WITH RAS NODE OR RTK TARGETED THERAPEUTIC AGENTS” (Celcuity Inc., priority 2019, published 2022)", "assay_type_in_all_cases": "cell-based, human", "key": {"[1]": {"test_system": "LPA1-initiated signaling in HER2-negative/PI3K//ERK/MEK/RAF/mTOR Wild-Type breast tumor cell samples", "test": "impedance biosensor cell adhesion test, LPA1 agonist with RAS node inhibitors (Example 4)", "set-up": "unit not given here", "from_the_text": "Tissue and cell samples: 28 HER2-negative/PI3K//ERK/MEK/RAF/mTOR Wild-Type breast tumor cell samples were studied. […] From these responses, the net amount of LPA1-initiated signaling involving PI3K-α, Class 1 PI3K-isoforms (pan-PI3K), Class 1 PI3K-isoforms and mTOR, Bcl-xL and Bcl-2, MEK, ERK, and RAF, individually and in combination, was quantified.\nIn this example, 14 of the 28 patient cell samples tested recorded output values with at least one of the targeted therapeutic(s) above 250. […] Five patients would be selected to receive treatment with gedatolisib, four would be selected to receive treatment with copanlisib, one patient would be selected to receive treatment with PLX7904, six patients would be selected to receive treatment with gedatolisib and PLX7904, seven patients would be selected to receive treatment with gedatolisib and ravoxertinib, nine patients would be selected to receive treatment with gedatolisib and trametinib, and 14 patients would be selected to receive treatment with gedatolisib and navitoclax."}, "[2]": {"test_system": "S1P-initiated signaling in HER2-negative/PI3K wild-type breast tumor cell samples", "test": "impedance biosensor cell adhesion test, S1P agonist with HER2 inhibitor (Example 2)", "set-up": "scale not given here", "from_the_text": "(§1) Tissue and cell samples: Eighteen HER2-negative/PI3K wild-type breast tumor cell samples were studied.\n(§2) In this example, four of the eighteen patient cell samples tested recorded output values with the targeted therapeutic, neratinib, above 500. These four patients would thus be selected to receive treatment with neratinib, even though they are HER2-negative."}, "[3]": {"test_system": "LPA1-initiated signaling in HER2-negative/PI3K wild-type breast tumor cell samples", "test": "impedance biosensor cell adhesion test, LPA1 agonist with HER2 inhibitor (Example 2)", "set-up": "scale not given here", "from_the_text": "as §1, §2"}, "[4]": {"conditions": "sample C1838.01.155, cut-off 250"}, "[5]": {"conditions": "sample C1986.01.10, cut-off 250"}, "[6]": {"conditions": "sample C2090.01.14, cut-off 250"}, "[7]": {"conditions": "sample C2169.01.10, cut-off 250"}, "[8]": {"conditions": "sample C3091.01.13, cut-off 250"}, "[9]": {"conditions": "sample C3132.01.13, cut-off 250"}, "[10]": {"conditions": "sample C3311.01.10, cut-off 250"}, "[11]": {"conditions": "sample CL021.01.869, cut-off 250"}}}
{"smiles": "Cn1nccc1Nc1nccc(-c2ccn([C@H](CO)c3ccc(Cl)c(F)c3)c(=O)c2)n1", "note": "[ravoxertinib]", "values": [{"measurement": "output value", "setting": "[1]; sample C1816.01.6, cut-off 250", "value": 96}, {"measurement": "output value", "setting": "[1]; [4]", "value": 108}, {"measurement": "output value", "setting": "[1]; sample C1918.01.5, cut-off 250", "value": 65}, {"measurement": "output value", "setting": "[1]; [5]", "value": 26}, {"measurement": "output value", "setting": "[1]; [6]", "value": 48}, {"measurement": "output value", "setting": "[1]; sample C2167.01.4, cut-off 250", "value": 7}, {"measurement": "output value", "setting": "[1]; [7]", "value": 14}, {"measurement": "output value", "setting": "[1]; sample C2483.01.6, cut-off 250", "value": 12}, {"measurement": "output value", "setting": "[1]; sample C2693.01.2, cut-off 250", "value": "−55"}, {"measurement": "output value", "setting": "[1]; sample C2697.01.4, cut-off 250", "value": 55}, {"measurement": "output value", "setting": "[1]; sample C2729.01.4, cut-off 250", "value": 10}, {"measurement": "output value", "setting": "[1]; sample C2748.01.4, cut-off 250", "value": 60}, {"measurement": "output value", "setting": "[1]; sample C2792.01.2, cut-off 250", "value": 24}, {"measurement": "output value", "setting": "[1]; sample C2794.01.9, cut-off 250", "value": "−24"}, {"measurement": "output value", "setting": "[1]; sample C2868.01.6, cut-off 250", "value": "−36"}, {"measurement": "output value", "setting": "[1]; sample C2991.01.7, cut-off 250", "value": 10}, {"measurement": "output value", "setting": "[1]; [8]", "value": 67}, {"measurement": "output value", "setting": "[1]; sample C3101.01.6, cut-off 250", "value": "−12"}, {"measurement": "output value", "setting": "[1]; [9]", "value": "−22"}, {"measurement": "output value", "setting": "[1]; [10]", "value": "−67"}, {"measurement": "output value", "setting": "[1]; sample C3337.01.6, cut-off 250", "value": 53}, {"measurement": "output value", "setting": "[1]; sample C3377.01.2, cut-off 250", "value": 0}, {"measurement": "output value", "setting": "[1]; sample C3507.01.5, cut-off 250", "value": "−24"}, {"measurement": "output value", "setting": "[1]; sample C3730.01.9, cut-off 250", "value": "−300"}, {"measurement": "output value", "setting": "[1]; sample C3873.01.4, cut-off 250", "value": 43}, {"measurement": "output value", "setting": "[1]; sample C3957.01.6, cut-off 250", "value": "−5"}, {"measurement": "output value", "setting": "[1]; sample C4005.01.2, cut-off 250", "value": 12}, {"measurement": "output value", "setting": "[1]; [11]", "value": "−226"}]}
{"smiles": "CCOc1cc2ncc(C#N)c(Nc3ccc(OCc4ccccn4)c(Cl)c3)c2cc1NC(=O)/C=C/CN(C)C", "note": "[Neratinib, neratinib]", "values": [{"measurement": "output value", "setting": "[2]; sample C125, cut-off 500", "value": "−19"}, {"measurement": "output value", "setting": "[2]; sample C129, cut-off 500", "value": 48}, {"measurement": "output value", "setting": "[2]; sample C133, cut-off 500", "value": 65}, {"measurement": "output value", "setting": "[2]; sample C148, cut-off 500", "value": "−11"}, {"measurement": "output value", "setting": "[2]; sample C152, cut-off 500", "value": 198}, {"measurement": "output value", "setting": "[2]; sample C197, cut-off 500", "value": 313}, {"measurement": "output value", "setting": "[2]; sample C199, cut-off 500", "value": 283}, {"measurement": "output value", "setting": "[2]; sample C201, cut-off 500", "value": "−12"}, {"measurement": "output value", "setting": "[2]; sample C213, cut-off 500", "value": 41}, {"measurement": "output value", "setting": "[2]; sample C219, cut-off 500", "value": "−48"}, {"measurement": "output value", "setting": "[2]; sample C223, cut-off 500", "value": 284}, {"measurement": "output value", "setting": "[2]; sample C230, cut-off 500", "value": 289}, {"measurement": "output value", "setting": "[2]; sample C251, cut-off 500", "value": 16}, {"measurement": "output value", "setting": "[2]; sample C270, cut-off 500", "value": 301}, {"measurement": "output value", "setting": "[2]; sample C276, cut-off 500", "value": 11}, {"measurement": "output value", "setting": "[2]; sample C307, cut-off 500", "value": 41}, {"measurement": "output value", "setting": "[2]; sample C371, cut-off 500", "value": 270}, {"measurement": "output value", "setting": "[2]; sample C434, cut-off 500", "value": "−1"}, {"measurement": "output value", "setting": "[3]; sample C125, cut-off 500", "value": 54}, {"measurement": "output value", "setting": "[3]; sample C129, cut-off 500", "value": 247}, {"measurement": "output value", "setting": "[3]; sample C133, cut-off 500", "value": 161}, {"measurement": "output value", "setting": "[3]; sample C148, cut-off 500", "value": 38}, {"measurement": "output value", "setting": "[3]; sample C152, cut-off 500", "value": 482}, {"measurement": "output value", "setting": "[3]; sample C197, cut-off 500", "value": 590}, {"measurement": "output value", "setting": "[3]; sample C199, cut-off 500", "value": 296}, {"measurement": "output value", "setting": "[3]; sample C201, cut-off 500", "value": 110}, {"measurement": "output value", "setting": "[3]; sample C213, cut-off 500", "value": 42}, {"measurement": "output value", "setting": "[3]; sample C219, cut-off 500", "value": 92}, {"measurement": "output value", "setting": "[3]; sample C223, cut-off 500", "value": 666}, {"measurement": "output value", "setting": "[3]; sample C230, cut-off 500", "value": 506}, {"measurement": "output value", "setting": "[3]; sample C251, cut-off 500", "value": 106}, {"measurement": "output value", "setting": "[3]; sample C270, cut-off 500", "value": 962}, {"measurement": "output value", "setting": "[3]; sample C276, cut-off 500", "value": 166}, {"measurement": "output value", "setting": "[3]; sample C307, cut-off 500", "value": 38}, {"measurement": "output value", "setting": "[3]; sample C371, cut-off 500", "value": 460}, {"measurement": "output value", "setting": "[3]; sample C434, cut-off 500", "value": 35}]}
{"smiles": "CC(=O)Nc1cccc(-n2c(=O)n(C3CC3)c(=O)c3c(Nc4ccc(I)cc4F)n(C)c(=O)c(C)c32)c1", "note": "[trametinib]", "values": [{"measurement": "output value", "setting": "[1]; sample C1816.01.6, cut-off 250", "value": 29}, {"measurement": "output value", "setting": "[1]; [4]", "value": 31}, {"measurement": "output value", "setting": "[1]; sample C1918.01.5, cut-off 250", "value": 65}, {"measurement": "output value", "setting": "[1]; [5]", "value": 161}, {"measurement": "output value", "setting": "[1]; [6]", "value": 19}, {"measurement": "output value", "setting": "[1]; sample C2167.01.4, cut-off 250", "value": "−7"}, {"measurement": "output value", "setting": "[1]; [7]", "value": 67}, {"measurement": "output value", "setting": "[1]; sample C2483.01.6, cut-off 250", "value": 132}, {"measurement": "output value", "setting": "[1]; sample C2693.01.2, cut-off 250", "value": "−60"}, {"measurement": "output value", "setting": "[1]; sample C2697.01.4, cut-off 250", "value": 72}, {"measurement": "output value", "setting": "[1]; sample C2729.01.4, cut-off 250", "value": 26}, {"measurement": "output value", "setting": "[1]; sample C2748.01.4, cut-off 250", "value": 79}, {"measurement": "output value", "setting": "[1]; sample C2792.01.2, cut-off 250", "value": 48}, {"measurement": "output value", "setting": "[1]; sample C2794.01.9, cut-off 250", "value": "−14"}, {"measurement": "output value", "setting": "[1]; sample C2868.01.6, cut-off 250", "value": "−43"}, {"measurement": "output value", "setting": "[1]; sample C2991.01.7, cut-off 250", "value": "−70"}, {"measurement": "output value", "setting": "[1]; [8]", "value": 50}, {"measurement": "output value", "setting": "[1]; sample C3101.01.6, cut-off 250", "value": 101}, {"measurement": "output value", "setting": "[1]; [9]", "value": 10}, {"measurement": "output value", "setting": "[1]; [10]", "value": 94}, {"measurement": "output value", "setting": "[1]; sample C3337.01.6, cut-off 250", "value": 113}, {"measurement": "output value", "setting": "[1]; sample C3377.01.2, cut-off 250", "value": 149}, {"measurement": "output value", "setting": "[1]; sample C3507.01.5, cut-off 250", "value": "−29"}, {"measurement": "output value", "setting": "[1]; sample C3730.01.9, cut-off 250", "value": "−204"}, {"measurement": "output value", "setting": "[1]; sample C3873.01.4, cut-off 250", "value": "−72"}, {"measurement": "output value", "setting": "[1]; sample C3957.01.6, cut-off 250", "value": 10}, {"measurement": "output value", "setting": "[1]; sample C4005.01.2, cut-off 250", "value": 36}, {"measurement": "output value", "setting": "[1]; [11]", "value": "−226"}]}
